From US8815593B2, “Induction of human embryonic stem cell derived cardiac pacemaker or chamber-type cardiomyocytes by manipulation of neuregulin signaling” (University of Washington, priority 2008, dated 2014)

B1: NRG1β ligand: NRG-1β (R&D Systems), exogenous neuregulin-1β agonist of ErbB receptors (protein)
chain: TSHLVKCAEKEKTFCVNGGECFMVKDLSNPSRYLCKCPNEFTGDRCQNYVMASFYKHLGIEFMEAEELYQK

How the values were obtained:
Assay type in all cases: cell-based, human
hESC-CM cultures [1] = assay: action potential (AP) phenotyping of hESC-CMs under current clamp after manipulation of NRG-1β/ErbB signaling
Protocol: At 14 days following induction with activin A, hESC-CMs were dispersed using 0.1 U/ml of dispase (Invitrogen) with 63 U/ml DNase I (Invitrogen) and replated at low density onto 0.5% gelatin-coated glass coverslips. After a few days of additional culture, the spontaneously generated action potentials (APs) of the hESC-CMs were recorded using a HEKA EPC-10 amplifier (HEKA, Lambrecht, Germany), operated in current-clamp mode. Note that the EPC-10 has a true “voltage follower” circuit, similar to a classical microelectrode amplifier (Magistretti et al., “Modalities of Distortion of Physiological Voltage Signals by Patch-Clamp Amplifiers: a Modeling Study,” Biophys J. 74(2 Pt 1):831-842 (1998) and Magistretti et al., “Action Potentials Recorded with Patch-Clamp Amplifiers: Are They Genuine?” Trends Neurosci. 19(12):530-534 (1996), which are hereby incorporated by reference in their entirety). […] Patch pipettes with a resistance of 2-4 MΩ were used; cells with a series resistance of >10 MΩ were discarded. […] Action potential parameters were analyzed by an individual blinded to culture conditions, using Patchmaster (HEKA) and Igor Pro software. […]

[2] = tested on: cGATA6-EGFP-transduced hESC-CM cultures; assay: cGATA6-EGFP reporter: fraction of EGFP+ putative nodal cells; settings: cGATA6-EGFP transduced hESC-CMs, ~50% transduction efficiency; control 15%
Protocol: Prior to lentiviral transduction, hESC-CMs were replated onto glass coverslips as described for electrophysiological studies and allowed to recover for 4-5 days. Cells were then exposed to cGATA6-EGFP lentivirus (at 5000 LPs/cell, added to their usual RPMI-B27 medium) for 12 hours. […] Transduced cell preparations were then used in either electrophysiological or immunocytochemical studies at 3-4 days post-transduction.
Dissociated hESC-CMs were cultured on glass cover slips, fixed, and immunostained as previously described (Laflamme et al., “Cardiomyocytes Derived from Human Embryonic Stem Cells in Pro-Survival Factors Enhance Function of Infarcted Rat Hearts,” Nat. Biotechnol. 25(9):1015-1024 (2007), McDevitt et al., “Proliferation of Cardiomyocytes Derived from Human Embryonic Stem Cells is Mediated Via the IGF/PI 3-Kinase/Akt Signaling Pathway,” J Mol Cell Cardiol. 39(6):865-873 (2005), Laflamme et al., “Formation of Human Myocardium in the Rat Heart from Human Embryonic Stem Cells,” Am J. Pathol. 167(3):663-671 (2005), and Minami et al., “Extracardiac Progenitor Cells Repopulate Most Major Cell Types in the Transplanted Human Heart,” Circulation 112(19):2951-2958 (2005), which are hereby incorporated by reference in their entirety). […] Each experimental condition was assayed in triplicate, and a minimum of 500 nuclei were counted per sample. […]

hESC-CM cultures [3] = assay: quantitative RT-PCR of cardiac subtype-specific genes; settings: treated hESC-CMs vs control, normalized to GAPDH
Protocol: Total RNA was prepared by lysing cell preparations with the Qiagen RNEasy kit, followed by DNase treatment. After confirming the quality of the RNA using an Agilent Bioanalyzer 2100, it was reverse-transcribed into cDNA using the Superscript III first-strand cDNA synthesis kit (Invitrogen). Tables 2 and 3 list the primers used for semi-quantitative and quantitative RT-PCR reactions, respectively. All primer pairs were designed to be intron-spanning Quantitative real-time PCR reactions were performed using the SYBR green dye system and an Applied Biosystems 7900HT instrument. Cycling conditions were 10 minutes at 95° C., and 40 cycles of 30 seconds at 95° C., 30 seconds at 55° C., and 30 seconds at 72° C. mRNA levels were normalized using GAPDH as an internal control, and adult human heart cDNA was always run in parallel as a positive control.
In the preceding experiments, manipulation of NRG-1β/ErbB signaling changed the relative abundance of the two cardiac subtypes, as determined by both AP phenotyping and activation of the nodal-specific cGATA6-EGFP genetic reporter. To confirm these findings with an independent, molecular approach, quantitative RT-PCR was used to compare the expression of 18 subtype-specific genes in control, AG1478, and NRG-1β ligand-treated hESC-CM cultures (see Table 4). […] In sum, activation of NRG-1β/ErbB signaling increased the expression of genes associated with working cardiomyocytes, while its blockade with AG1478 increased the expression of genes associated with the nodal subtype.

[4] = tested on: Akt and ERK kinases in hESC-CM cultures; assay: Western blot analysis of Akt and Erk phosphorylation; settings: hESC-CMs day 10 post-induction, 10 minutes, 10 or 100 ng/ml NRG-1β, with or without 25 μg/ml anti-NRG1β antibody
Protocol: For this, hESC-CMs (˜5×10^6 […] per well) were treated on day 10 post-induction with 0, 10, or 100 ng/ml NRG-1β (R&D Systems) in the presence or absence of 25 μg/ml anti-NRG1β neutralizing antibody (R&D Systems) for 10 minutes. After treatment, cells were rinsed twice with ice-cold PBS and lysed for 20 minutes on ice with 250 μl of extraction buffer (25 mM Tris-HCl (pH 7.4), 150 mM NaCl, 2 mM EDTA, 10 mM Na2SO4, and 1% Triton X-100 supplemented just prior to use with 50 mM NaF, 1 mM sodium orthovanadate, 1 mM phenylmethylsulfonyl fluoride, and a protease inhibitor cocktail (Sigma)). Lysates were collected with a cell scraper, placed in microcentrifuge tubes, vortexed for 3 minutes at 4° C., and then spun at 4° C. for 20 minutes at 12,000 g to discard cell debris. The resultant protein lysates were then denatured at 95° C. for 10 minutes and loaded (at 30 μg/lane) onto a denaturing 10% SDS/polyacrylamide gel, electrophoresed, and then transferred onto a PVDF membrane. The PVDF blot was blocked for 1 hour at room temperature in 1×TBST (150 mM NaCl, 10 mM Tris-HCl (pH 7.4), and 0.1% Tween) plus 5% nonfat milk, probed overnight with anti-phosphorylation Akt and anti-phosphorylation Erk1/2 antibodies (Cell Signaling), and then incubated with peroxidase-conjugated goat anti-mouse IgG antibody (Sigma). […]

Molecule | proportion of cells exhibiting a nodal-like AP phenotype (hESC-CM cultures [1]; differentiating hESC-CM cultures, control 21%) | percentage of EGFP+ putative nodal cells [2] | expression of HCN4 relative to control cells (hESC-CM cultures [3]) | expression of Tbx-3 (TBX3) relative to control cells (hESC-CM cultures [3]) | effect on fraction of nodal cells (AP phenotyping) (hESC-CM cultures [1]; exogenous NRG-1β 100 ng/ml, day 5 to 12 or continuously after day 5, versus control) | expression of NPPA (atrial natriuretic factor, ANF) relative to controls (hESC-CM cultures [3]) | phosphorylation (activation) of Akt and ERK kinases [4] | phosphorylation (activation) of Akt and ERK kinases ([4]; listed as NRG-1β agonist)
COc1cc2ncnc(Nc3cccc(Cl)c3)c2cc1OC [AG1478] | 52% | 25% | 2.0 fold | 2.6 fold |  |  |  | 
B1 |  |  |  |  | a trend toward the opposite effect (i.e., a reduction in the fraction of nodal cells) | 2.6 fold | phosphorylated | activation of both kinases
